According to US5057520A, “7-(peptidylpyrolidinyl)naphthyridine antibacterial compounds” (Abbott Laboratories, priority 1989, dated 1991):
In brackets after ≈: the same amount, converted by molar mass. Where a name gives a salt, the structure may show the parent alone. Read-outs that look alike come from different tables or passages of the source.

Experiments:
[1] = tested on: PSEUDOMONAS AERUGINOSA K799/WT; assay: In vitro MIC, agar dilution (BHIA); type: cell-based
[2] = tested on: STREPTOCOCCUS PYOGENES 930 CONST; assay: In vitro MIC, agar dilution (BHIA); type: cell-based
PSEUDOMONAS CEPACIA 296I = assay: In vitro MIC, agar dilution (BHIA); type: cell-based
[3] = tested on: STREPTOCOCCUS BOVIS A5169; assay: In vitro MIC, agar dilution (BHIA); type: cell-based
[4] = tested on: STREPTOCOCCUS AGALACTIAE CMX 508; assay: In vitro MIC, agar dilution (BHIA); type: cell-based
[5] = tested on: STREPTOCOCCUS PYOGENES EES61; assay: In vitro MIC, agar dilution (BHIA); type: cell-based
[6] = tested on: MICROCOCCUS LUTEUS ATCC 9341; assay: In vitro MIC, agar dilution (BHIA); type: cell-based
[7] = Conversion of prodrug to parent drug in whole blood at 37° C.; type: in vitro ADME, Rat
Experimental: (§1) An aqueous solution of prodrug (Z) is spiked into fresh whole blood containing sodium heparin as an anticoagulant. The sample is mixed gently by inversion and placed in a 37° waterbath. At selected time intervals an 0.5 ml aliquot of blood is removed and placed in a chilled 1.5 ml centrifuge tube (ice temperature). Samples are centrifuges at 13,000 rpm for two minutes to separate plasma. An 0.2 ml aliquot of the plasma sample is combined with 0.2 ml internal standard (7-(4-amino-2-methyl-1-pyrrolidinyl)-1-(2,4-difluorophenyl)-6-fluoro-1,4-d ihydro-4-oxo-1,8-naphthyridine-3-carboxylic acid in 0.2M sodium phosphate pH 7.2 buffer) and 6 mls CH2 Cl2 :EtoH (9:1 by volume). Samples are capped and shaken gently for 10 minutes. Samples are centrifuges at 2500 rpm for 10 minutes (4° C.). The aqueous layer is aspirated to waste and the organic layer is transferred to a conical centrifuge tube and evaporated to dryness with a stream of dry air and low heat ([…]). Samples are reconstituted with 0.2 ml mobile phase followed by vortexing. Samples are centrifuges at 2500 rpm for 10 minutes to separate precipitate. The supernatant is transferred to a WISP vial with plastic insert for HPLC analysis.

ESCHERICHIA COLI JUHL = assay: In vitro MIC, agar dilution (BHIA); type: cell-based
[8] = tested on: ENTEROCOCCUS FAECIUM ATCC 8043; assay: In vitro MIC, agar dilution (BHIA); type: cell-based
[9] = tested on: MICROCOCCUS LUTEUS ATCC 4698; assay: In vitro MIC, agar dilution (BHIA); type: cell-based
[10] = tested on: PSEUDOMONAS AERUGINOSA K799/61; assay: In vitro MIC, agar dilution (BHIA); type: cell-based
[11] = tested on: STREPTOCOCCUS PYOGENES 2548 INDUC; assay: In vitro MIC, agar dilution (BHIA); type: cell-based
[12] = tested on: KLEBSIELLA PNEUMONIAE ATCC 8045; assay: In vitro MIC, agar dilution (BHIA); type: cell-based
ESCHERICHIA COLI H560 = assay: In vitro MIC, agar dilution (BHIA); type: cell-based
From the text: (§2) The MIC results are in ug/ml.

[13] = tested on: PSEUDOMONAS AERUGINOSA BMH10; assay: In vitro MIC, agar dilution (BHIA); type: cell-based
[14] = Conversion of prodrug to parent drug in whole blood at 37° C.; type: in vitro ADME, Human
Experimental: as §1

[15] = tested on: PSEUDOMONAS AERUGINOSA A5007; assay: In vitro MIC, agar dilution (BHIA); type: cell-based
P. Aeruginosa A5007 = assay: Acute mouse protection test; type: in vivo; settings: mice infected i.p. with P. Aeruginosa A5007, observed 7 days; for SC (ED50): SC dosing at 1 and 5 hours post-infection; for Oral (ED50): oral dosing at 1 and 5 hours post-infection
Stap. Aureus NCTC 10649 = assay: Acute mouse protection test; type: in vivo; settings: mice infected i.p. with Stap. Aureus NCTC 10649, observed 7 days; for SC (ED50): SC dosing at 1 and 5 hours post-infection; for Oral (ED50): oral dosing at 1 and 5 hours post-infection
ACINETOBACTER SP CMX 669 = assay: In vitro MIC, agar dilution (BHIA); type: cell-based
[16] = tested on: PROVIDENCIA STUARTII CMX 640; assay: In vitro MIC, agar dilution (BHIA); type: cell-based
ESCHERICHIA COLI SS = assay: In vitro MIC, agar dilution (BHIA); type: cell-based
From the text: as §2

E. Coli Juhl = assay: Acute mouse protection test; type: in vivo; settings: mice infected i.p. with E. Coli JUHL, observed 7 days; for SC (ED50): SC dosing at 1 and 5 hours post-infection; for Oral (ED50): oral dosing at 1 and 5 hours post-infection
Strep. pyogenes EES 61 = assay: Second in vitro MIC test, Brain Heart Infusion Broth (BHIB); type: cell-based
[17] = Conversion of prodrug to parent drug in whole blood at 37° C.; type: in vitro ADME, Dog
Experimental: as §1

[18] = tested on: ENTEROBACTER AEROGENES ATCC 13048; assay: In vitro MIC, agar dilution (BHIA); type: cell-based
[19] = Plasma level in dog after oral dose; settings: 10 mg equivalent/kg oral dose, HPLC
From the text: The plasma samples were collected and determined by the HPLC analysis.

[20] = Solubility in water and at pH 7.4; settings: for Water Solubility: the sign > refers to an approximate value and the solubility may be within 10% higher
[21] = STREPTOCOCCUS AGALACTIAE CMX 508
[22] = conversion to parent drug in rat whole blood at 37° C., seconds
[23] = conversion to parent drug in dog whole blood at 37° C., seconds

Compound | MIC [1] [µg/mL] | MIC (PSEUDOMONAS CEPACIA 296I) [µg/mL] | MIC [6] [µg/mL] | MIC [9] | MIC [10] | MIC [11] | MIC [12] | MIC (ESCHERICHIA COLI H560) | MIC [13] [µg/mL] | MIC [15] [µg/mL] | SC (ED50) (P. Aeruginosa A5007) [mg/kg/day] | Oral (ED50) (P. Aeruginosa A5007) [mg/kg/day] | SC (ED50) (Stap. Aureus NCTC 10649) [mg/kg/day] | Oral (ED50) (Stap. Aureus NCTC 10649) [mg/kg/day] | SC (ED50) (E. Coli Juhl) [mg/kg/day] | Oral (ED50) (E. Coli Juhl) [mg/kg/day] | further results
7-[3-Norvaline-amino-1-pyrrolidinyl]-1-(2,4-difluorophenyl)-6-fluoro-1,4-di hydro-4-oxo-1,8-naphthyridine-3-carboxylic acid hydrochloride [Example 2b] | 6.2 | 50 | 25 | 25 µg/mL | .39 µg/mL | .39 µg/mL | .39 µg/mL | .78 µg/mL | 6.2 | 12.5 |  |  |  |  |  |  | MIC [2]: .78 µg/mL; MIC ([3]; STREPTOCOCCUS BOVIS A5169): 1.56 µg/mL; MIC [4, 21]: 1.56 µg/mL; MIC ([5]; STREPTOCOCCUS PYOGENES EES61): 1.56 µg/mL; Half Life Rat [7]: 40.7 s; MIC (ESCHERICHIA COLI JUHL): .78 µg/mL; MIC [8]: .78 µg/mL; Half Life Human [14]: 75.5 s
NCC(=O)N[C@@H](Cc1ccccc1)C(=O)NC1CCN(c2nc3c(cc2F)c(=O)c(C(=O)O)cn3-c2ccc(F)cc2F)C1 (stereo partly drawn) [Example 1b, 7-[(3-Gly-L-Phe-amino)-1-pyrrolidinyl]-1-(2,4-difluorophenyl)-6-fluoro-1,4-dihydro-4-oxo-1,8-naphthyridine-3-carb oxylic acid hydrochloride] | 25 | 50 | 6.25 | .78 µg/mL | 12.5 µg/mL | .78 µg/mL | 12.5 µg/mL | 1.56 µg/mL | 25 | 25 | 8.0 | 27.3 | 0.5 | 0.7 | 0.6 | 1.8 | MIC [2]: .78 µg/mL; MIC ([3]; STR[…] A5169): 1.56 µg/mL; MIC ([4]; STR[…] 508): 1.56 µg/mL; MIC ([5]; STR[…] EES61): 1.56 µg/mL; MIC (ACINETOBACTER SP CMX 669): 12.5 µg/mL; MIC [16]: 100 µg/mL; MIC (ESCHERICHIA COLI SS): .2 µg/mL
CCC[C@H](NC(=O)[C@@H](N)CCC)C(=O)NC1CCN(c2nc3c(cc2F)c(=O)c(C(=O)O)cn3-c2ccc(F)cc2F)C1 (stereo partly drawn) [Example 3b, 7-(3-L-Norvaline-L-Norvalineamino-1-pyrrolidinyl)-1-(2,4-difluorophenyl)-6-fluoro-1,4-dihydro-4-oxo-1,8-naphthyridine-3-carboxylic acid hydrochloride] |  |  |  |  |  |  |  |  |  |  | 6.2 | 9.1 | 0.5 | 1.8 | 0.5 | 4.0 | MIC (Strep. pyogenes EES 61): 12.5 µg/mL; Half Life Rat [7, 22]: 51.5 s; Half Life Human ([14]; conversion to parent drug in human whole blood at 37° C., minutes): 2.1 m; Half Life Dog [17, 23]: 86.5 s
NC(Cc1ccccc1)C(=O)NC1CCN(c2nc3c(cc2F)c(=O)c(C(=O)O)cn3-c2ccc(F)cc2F)C1 (stereo not drawn) [Example 5] | 25 (≈ 45.3 µM) | > 100 | 25 (≈ 45.3 µM) | 12.5 µg/mL (≈ 22.7 µM) | 1.56 µg/mL (≈ 2.83 µM) | .78 µg/mL (≈ 1.41 µM) | 1.56 µg/mL (≈ 2.83 µM) | 3.1 µg/mL (≈ 5.62 µM) | 25 (≈ 45.3 µM) | 50 (≈ 90.7 µM) | 7.5 | 18.6 | 1.0 | 3.6 | 0.7 | 3.5 | MIC [4, 21]: 3.1 µg/mL (≈ 5.62 µM); MIC ([5]; STREPTOCOCCUS PYOGENES EES61): 3.1 µg/mL (≈ 5.62 µM); Half Life Rat [7]: 4.5 m; MIC (ACINETOBACTER SP CMX 669): 12.5 µg/mL (≈ 22.7 µM); MIC (ESCHERICHIA COLI JUHL): 3.1 µg/mL (≈ 5.62 µM); MIC [18]: 12.5 µg/mL (≈ 22.7 µM); MIC [8]: 3.1 µg/mL (≈ 5.62 µM); MIC [16]: > 100 µg/mL; MIC (ESCHERICHIA COLI SS): .1 µg/mL (≈ 0.181 µM); Half Life Human [14]: 10.7 m; Half Life Dog [17]: 8.3 m
CCC[C@H](NC(=O)CN)C(=O)NC1CCN(c2nc3c(cc2F)c(=O)c(C(=O)O)cn3-c2ccc(F)cc2F)C1 (stereo partly drawn) [Example 52] |  |  |  |  |  |  |  |  |  |  |  |  |  |  |  |  | AUC (0-32h) [19]: 13.9; Solubility pH 7.4 [20]: 0.08 mg/ml; Water Solubility [20]: 6.89 mg/mL
CCC[C@H](NC(=O)[C@H](C)N)C(=O)NC1CCN(c2nc3c(cc2F)c(=O)c(C(=O)O)cn3-c2ccc(F)cc2F)C1 (stereo partly drawn) [Example 55b, 7-(3-Ala-Nval-amino-1-pyrrolidinyl)-6-fluoro-1-(2,4-difluorophenyl)-1,4-di hydro-4-oxo-1,8-naphthyridine-3-carboxylic acid] |  |  |  |  |  |  |  |  |  |  |  |  |  |  |  |  | Half Life Rat [7, 22]: 33.2 s; AUC (0-32h) [19]: 15.4; Solubility pH 7.4 [20]: 1.03 mg/ml; Water Solubility [20]: 26 mg/mL; Half Life Human ([14]; conversion to parent drug in human whole blood at 37° C., seconds): 88.0 s; Half Life Dog [17, 23]: 118.0 s
NC1CCN(c2nc3c(cc2F)c(=O)c(C(=O)O)cn3-c2ccc(F)cc2F)C1 (stereo not drawn) [tosufloxacin, 7-(3-amino-1-pyrrolidinyl)-6-fluoro,1-(2,4-difluorophenyl)-1,4-dihydro-4-o xo-1,8-naphthyridine 3-carboxylic acid, reference compound] |  |  |  |  |  |  |  |  |  |  | > 25 | 6.2 | 0.6 | 1.5 | 0.2 | 0.9 | MIC ([1]; read-out: MIC): 0.78 µg/mL (≈ 1.93 µM); MIC (PSEUDOMONAS CEPACIA 296I; Burkholderia cepacia, read-out: MIC): 3.1 µg/mL (≈ 7.67 µM); MIC ([6]; ATCC9341, read-out: MIC): 1.56 µg/mL (≈ 3.86 µM); MIC ([9]; ATCC4698, read-out: MIC): 0.78 µg/mL (≈ 1.93 µM); MIC ([16]; read-out: MIC): 1.56 µg/mL (≈ 3.86 µM); MIC ([15]; read-out: MIC): 0.78 µg/mL (≈ 1.93 µM)
